The text below walks through data of patent publication US20070093673A1, “Boron-containing compounds, uses and preparation thereof” (priority 2005, published 2007).

The structures appear in SMILES notation.

Series [1] concerns Pain and/or Inflammation. As to the kind of experiment: Tests on various subjects: cream applied to the inflamed skin area for pain and/or inflammation. Also on record: key to Pain Condition After Last Application: CD: complete disappearance of pain; RP: residual pain (i.e.: equivalent to mild pain intensity); key to Pain Intensity After Application: No pain: 0; Mild pain: +; Moderate pain: ++; Severe pain: +++ (i.e.: interference with sleep and/or day's activities). The series is classed as in vivo, human. As for the experimental part:
Compound 1, and more particularly Composition 1, was tested on several subjects so as to verify its activity as anti-inflammatory agent and/or analgesic. As it can be seen from Table 1, test subjects having various inflammations or pain have been treated with Composition 1. In each case, a small amount of Composition 1, in the form of a cream, was applied to inflammated skin area by means of a short gentle rub.
All data were provided under testimony of all volunteers.
M: male • a) Pain intensity rating: • No pain: 0 • Mild pain: + • Moderate pain: ++ • Severe pain: +++ (i.e.: interference with sleep and/or day's activities). • b) Pain condition after the last application of Compound 1. • CD: complete disappearance of pain. • RP: residual pain (i.e.: equivalent to mild pain intensity).

The nature of series [2]: solubility in water of Compound 1. The format is physicochemical. From the text: The mass spectroscopy analysis (electrospray/scanning) using a Micromass quattra ll triple quadrupole mass spectrometer with a GC and HPLC interface, confirmed the previously illustrated formula for Compound 1. Analysis of Compound 1 was done by mass spectroscopy, positive mode, preparation of samples in 2% acetonitrile-98% methanol. […] The product observed was the following: B3C3H11O9 (223.5 g per mole). […] The purity of the obtained product was>98 % (confirmed by 500 MHz ^1H NMR analysis) and the solubility in water was at maximum 7% w/w, yielding a clear colorless solution.
An analysis of Compound 1, prepared by using metaboric acid and glycerol, was conducted under the same condition as for Compound 1 with boric acid and glycerol. […] The product observed was the following: B3C3H11O9 (223.5 g per mole). […] When compared to Compound 1 prepared from boric acid and glycerol, the purity and solubility of the obtained product were similar i.e. a purity of ≈98% with solubility in water at maximum of 7% w/w, yielding a colorless solution.

[3] abbreviates: all four subjects with chronic diseases, after application.

For `CC(=O)Oc1ccccc1C(=O)O` [Aspirin®, acetylsalicylic acid, reference compound], the “gastric adverse effect that prompted discontinuation” value in series [1] (medications taken in the past by the volunteers, testimony) is recorded as “severe gastric burning sensation”.
On to `OB(O)OCC(COB(O)O)OB(O)O` [Compound 1], for which the “subjects with total disappearance of pain” value in series [1] (30 minutes after application of the cream containing Compound 1) is given as “Four subjects out of six”. For the same molecule, in series [1] (setting [3]), the “complete loss of stiffness” value is reported as “within four four hours”. In addition, the “reduced sensation of stiffness” value in series [1] (setting [3]) is recorded as “within two hours”. In addition, the “time to complete relief of the pain after the application” value in series [1] (four subjects with chronic lower back pain, fibromyalgia or arthritis) is “approximately 30 minutes”. Besides, in series [1] (including three out of six who required a maximum of three applications), the “pain after last application, all subjects” value is listed as “complete disappearance of pain for all subjects”. Besides, the “time to relapse of pain” value in series [1] (one out of four subjects with chronic disease, who required three applications) is “approximately 12 hours”. For the same molecule, the “pain intensity, all volunteers” value in series [1] (six volunteers, topical cream) is listed as “reduced pain intensity for all volunteers”. The “loss of swelling at joints and of tenderness sensation” value in series [1] (subjects with fibromyalgia and arthritis) was “approximately the same time-frames as reported earlier for stiffness”. Also, in series [1] (two subjects with an injury to a leg), the “time to complete disappearance of pain” value was “within three days”. Further, the “effect compared with medications taken in the past for the same chronic afflictions” value in series [1] (versus acetaminophen/Tylenol, acetaminophen-codeine/Empracet or acetylsalicylic acid/Aspirin, testimony of volunteers) is reported as “higher than medications taken in the past”. Further, the “Pain Condition After Last Application” value in series [1] (volunteer D-123-S, injury, leg, 3 applications) is given as “CD”; in series [1] (volunteer D-321-J, fibromyalgia, hands, 1 application), “CD*”; in series [1] (volunteer D-457-D, fibromyalgia, hands & feet, 1 application), “CD*”; in series [1] (volunteer D-633-J, lower back pain, musculoskeletal, 1 application) it was “CD*”; in series [1] (volunteer D-701, arthritis, wrists, 3 applications), “CD”; in series [1] (volunteer D-942-L, injury, leg, 3 applications), “CD”. Also, the “Pain Intensity After Application” value in series [1] (volunteer D-123-S, injury, leg, before application ++, 3 applications, topical cream) is “+”; in series [1] (volunteer D-321-J, fibromyalgia, hands, before application +++, 1 application, topical cream) it was 0; in series [1] (volunteer D-457-D, fibromyalgia, hands & feet, before application ++, 1 application, topical cream), 0; in series [1] (volunteer D-633-J, lower back pain, musculoskeletal, lower back, central, before application ++, 1 application, topical cream) it was 0; in series [1] (volunteer D-942-L, injury, leg, before application +++, 3 applications, topical cream), “++”. The “Time to Pain Relief” value in series [1] (volunteer D-123-S, injury, leg, before application ++, topical cream) was found to be 0.5 h; in series [1] (volunteer D-321-J, fibromyalgia, hands, before application +++, topical cream), 0.5 h; in series [1] (volunteer D-457-D, fibromyalgia, hands & feet, before application ++, topical cream) it was 0.5 h; in series [1] (volunteer D-633-J, lower back pain, musculoskeletal, before application ++, topical cream), 0.5 h; in series [1] (volunteer D-701, arthritis, wrists, before application ++, topical cream) it was 0.5 h; in series [1] (volunteer D-942-L, injury, leg, before application +++, topical cream), 8.0 h. The solubility in water in series [2] (Compound 1 prepared from boric acid and glycerol, clear colorless solution) is ≤ 7 % w/w; in series [2] (Compound 1 prepared from metaboric acid and glycerol, colorless solution), ≤ 7 % w/w.
